# In ChEMBL document CHEMBL1649420, “Identifying chelators for metalloprotein inhibitors using a fragment-based approach” (J Med Chem, 2011):
# How the values were obtained:
# [1] = molecular target: T1, Polyunsaturated fatty acid 5-lipoxygenase (Homo sapiens) (UniProt P09917); assay: Inhibition of human recombinant 5-lipoxygenase at 1 mM after 10 mins by fluorescence assay
# T1 sequence (whole entry): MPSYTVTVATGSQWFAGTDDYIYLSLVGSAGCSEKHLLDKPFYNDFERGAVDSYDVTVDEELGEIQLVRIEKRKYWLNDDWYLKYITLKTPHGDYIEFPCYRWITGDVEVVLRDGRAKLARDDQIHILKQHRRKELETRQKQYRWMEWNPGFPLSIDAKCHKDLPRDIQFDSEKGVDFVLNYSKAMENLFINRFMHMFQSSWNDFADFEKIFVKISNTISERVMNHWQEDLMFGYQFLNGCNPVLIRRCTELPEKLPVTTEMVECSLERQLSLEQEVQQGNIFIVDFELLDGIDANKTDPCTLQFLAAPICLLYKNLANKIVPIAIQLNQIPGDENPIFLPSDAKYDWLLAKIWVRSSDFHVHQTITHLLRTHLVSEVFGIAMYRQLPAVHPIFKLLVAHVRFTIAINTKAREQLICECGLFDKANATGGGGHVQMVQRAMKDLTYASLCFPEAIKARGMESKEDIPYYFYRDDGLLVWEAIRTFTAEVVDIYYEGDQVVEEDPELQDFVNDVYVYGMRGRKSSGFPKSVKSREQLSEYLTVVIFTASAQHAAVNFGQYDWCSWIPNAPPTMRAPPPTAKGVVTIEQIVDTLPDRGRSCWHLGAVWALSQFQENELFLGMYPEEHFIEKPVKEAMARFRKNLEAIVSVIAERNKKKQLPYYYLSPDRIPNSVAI
# [2] = molecular target: T2, Tyrosinase (Agaricus bisporus) (UniProt O42713); conditions: at 1 mM;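 note: inhibition measured at 10 min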
# T2 sequence (whole entry): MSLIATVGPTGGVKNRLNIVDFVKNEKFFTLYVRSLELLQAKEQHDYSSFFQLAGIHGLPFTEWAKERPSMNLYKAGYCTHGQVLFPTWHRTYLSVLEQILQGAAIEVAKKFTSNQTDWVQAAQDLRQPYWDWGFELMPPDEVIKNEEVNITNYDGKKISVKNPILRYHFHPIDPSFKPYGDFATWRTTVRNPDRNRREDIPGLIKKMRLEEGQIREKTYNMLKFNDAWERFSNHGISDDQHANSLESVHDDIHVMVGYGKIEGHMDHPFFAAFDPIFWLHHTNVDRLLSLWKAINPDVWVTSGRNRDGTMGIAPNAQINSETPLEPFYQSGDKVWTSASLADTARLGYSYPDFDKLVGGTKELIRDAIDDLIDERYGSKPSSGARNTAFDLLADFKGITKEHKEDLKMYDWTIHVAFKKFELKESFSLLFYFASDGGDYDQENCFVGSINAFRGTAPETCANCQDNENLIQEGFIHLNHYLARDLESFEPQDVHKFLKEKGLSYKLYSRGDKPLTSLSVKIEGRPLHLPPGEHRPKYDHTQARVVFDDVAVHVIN
# [3] = molecular target: T3, Interstitial collagenase (Homo sapiens) (UniProt P03956); conditions: at 1 mM;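 note: recombinant human enzyme, with inhibition measured after 30 min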
# T3 sequence (whole entry): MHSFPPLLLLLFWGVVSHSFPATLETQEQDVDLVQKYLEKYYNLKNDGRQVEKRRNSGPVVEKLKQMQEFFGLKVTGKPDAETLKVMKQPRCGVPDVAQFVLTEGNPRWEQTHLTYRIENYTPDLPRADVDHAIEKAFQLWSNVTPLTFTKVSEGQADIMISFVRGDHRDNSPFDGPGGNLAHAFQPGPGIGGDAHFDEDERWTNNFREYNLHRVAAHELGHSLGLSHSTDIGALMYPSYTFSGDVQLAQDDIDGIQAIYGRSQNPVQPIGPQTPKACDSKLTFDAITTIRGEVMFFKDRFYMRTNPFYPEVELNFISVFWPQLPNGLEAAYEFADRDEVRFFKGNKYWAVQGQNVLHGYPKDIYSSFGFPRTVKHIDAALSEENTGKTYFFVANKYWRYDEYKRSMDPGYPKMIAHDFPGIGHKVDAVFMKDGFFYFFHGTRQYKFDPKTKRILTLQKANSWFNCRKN
# [4] = molecular target: 72 kDa type IV collagenase (Homo sapiens, UniProt P08253); conditions: at 1 mM;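 note: recombinant human enzyme, inhibition read after a 30 min incubation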
# [5] = molecular target: Stromelysin-1 (Homo sapiens) (UniProt P08254); conditions: at 1 mM;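 note: recombinant enzyme, inhibition read after a 30 min incubation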
# [6] = molecular target: Matrix metalloproteinase-9 (Homo sapiens) (UniProt P14780); conditions: at 1 mM;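 note: recombinant human MMP9, activity read after 30 min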
# [7] = molecular target: T4, Nitric oxide synthase, inducible (Mus musculus) (UniProt P29477); conditions: at 1 mM;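 note: recombinant enzyme, activity read out colorimetrically after 40 min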
# T4 sequence (whole entry): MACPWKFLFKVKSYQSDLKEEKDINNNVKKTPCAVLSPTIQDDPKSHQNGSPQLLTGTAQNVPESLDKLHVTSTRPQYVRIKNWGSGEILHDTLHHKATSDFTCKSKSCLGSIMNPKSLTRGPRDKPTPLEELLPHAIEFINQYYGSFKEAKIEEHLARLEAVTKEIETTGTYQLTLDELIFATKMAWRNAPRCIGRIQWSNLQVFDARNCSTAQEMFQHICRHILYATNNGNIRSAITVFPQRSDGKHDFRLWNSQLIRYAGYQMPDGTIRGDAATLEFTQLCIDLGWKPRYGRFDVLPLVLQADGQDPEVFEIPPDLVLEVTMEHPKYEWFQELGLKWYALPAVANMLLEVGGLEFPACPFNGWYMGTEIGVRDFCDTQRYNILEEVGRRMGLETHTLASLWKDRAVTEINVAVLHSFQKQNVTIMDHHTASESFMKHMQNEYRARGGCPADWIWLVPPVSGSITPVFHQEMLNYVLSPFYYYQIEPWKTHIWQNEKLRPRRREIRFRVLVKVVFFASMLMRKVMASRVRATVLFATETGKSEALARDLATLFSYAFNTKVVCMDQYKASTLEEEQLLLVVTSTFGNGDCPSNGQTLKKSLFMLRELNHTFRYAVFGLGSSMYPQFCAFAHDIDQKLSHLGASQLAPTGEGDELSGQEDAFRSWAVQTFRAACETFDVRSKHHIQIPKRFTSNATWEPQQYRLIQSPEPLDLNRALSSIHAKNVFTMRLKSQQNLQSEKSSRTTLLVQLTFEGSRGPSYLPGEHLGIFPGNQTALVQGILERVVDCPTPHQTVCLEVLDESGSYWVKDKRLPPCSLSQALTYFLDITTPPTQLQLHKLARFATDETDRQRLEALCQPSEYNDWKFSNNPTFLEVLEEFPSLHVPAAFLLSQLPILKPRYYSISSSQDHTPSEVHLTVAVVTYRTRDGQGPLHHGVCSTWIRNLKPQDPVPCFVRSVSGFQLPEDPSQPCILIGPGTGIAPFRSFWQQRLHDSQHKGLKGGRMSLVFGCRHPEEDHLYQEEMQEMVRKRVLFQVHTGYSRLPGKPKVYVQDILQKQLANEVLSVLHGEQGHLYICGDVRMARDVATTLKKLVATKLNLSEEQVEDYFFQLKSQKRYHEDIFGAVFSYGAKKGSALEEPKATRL
# Matrix metalloproteinase-9 (Homo sapiens), sequence (P14780 whole entry): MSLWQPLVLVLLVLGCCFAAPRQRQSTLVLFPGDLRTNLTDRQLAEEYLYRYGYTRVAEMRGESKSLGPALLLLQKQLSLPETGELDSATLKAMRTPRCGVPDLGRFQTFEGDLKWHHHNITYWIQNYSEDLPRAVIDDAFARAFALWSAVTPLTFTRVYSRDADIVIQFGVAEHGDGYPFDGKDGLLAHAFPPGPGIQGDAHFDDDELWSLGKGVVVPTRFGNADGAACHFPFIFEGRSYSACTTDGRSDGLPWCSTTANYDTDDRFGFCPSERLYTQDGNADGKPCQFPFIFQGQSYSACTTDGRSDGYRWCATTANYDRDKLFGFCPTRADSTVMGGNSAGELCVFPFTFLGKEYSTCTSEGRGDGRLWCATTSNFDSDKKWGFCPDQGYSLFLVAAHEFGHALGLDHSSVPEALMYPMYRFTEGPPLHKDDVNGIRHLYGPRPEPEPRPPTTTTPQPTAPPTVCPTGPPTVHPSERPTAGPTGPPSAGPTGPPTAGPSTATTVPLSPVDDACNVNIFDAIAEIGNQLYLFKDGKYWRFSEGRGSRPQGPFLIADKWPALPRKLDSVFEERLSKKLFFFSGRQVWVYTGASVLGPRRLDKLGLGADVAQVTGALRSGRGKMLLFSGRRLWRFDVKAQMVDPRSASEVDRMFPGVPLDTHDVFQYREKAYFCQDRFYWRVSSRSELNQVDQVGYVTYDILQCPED
# 72 kDa type IV collagenase, sequence (P08253 110-660 limits assumed): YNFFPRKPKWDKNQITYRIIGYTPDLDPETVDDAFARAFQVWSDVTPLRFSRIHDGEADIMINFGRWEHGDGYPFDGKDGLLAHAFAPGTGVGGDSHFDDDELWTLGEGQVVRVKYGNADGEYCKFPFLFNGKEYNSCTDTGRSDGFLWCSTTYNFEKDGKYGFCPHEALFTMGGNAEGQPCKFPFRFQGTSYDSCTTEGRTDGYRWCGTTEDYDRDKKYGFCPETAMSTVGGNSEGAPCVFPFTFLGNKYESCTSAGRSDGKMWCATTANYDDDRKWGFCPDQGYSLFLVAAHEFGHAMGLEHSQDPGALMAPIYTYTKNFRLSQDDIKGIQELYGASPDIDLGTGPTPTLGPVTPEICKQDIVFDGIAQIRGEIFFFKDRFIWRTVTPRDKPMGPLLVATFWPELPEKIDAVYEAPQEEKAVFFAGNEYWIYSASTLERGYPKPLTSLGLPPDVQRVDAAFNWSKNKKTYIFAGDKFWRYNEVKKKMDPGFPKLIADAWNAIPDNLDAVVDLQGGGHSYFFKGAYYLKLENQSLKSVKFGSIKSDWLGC
# Stromelysin-1 (Homo sapiens), sequence (P08254 100-477 limits assumed): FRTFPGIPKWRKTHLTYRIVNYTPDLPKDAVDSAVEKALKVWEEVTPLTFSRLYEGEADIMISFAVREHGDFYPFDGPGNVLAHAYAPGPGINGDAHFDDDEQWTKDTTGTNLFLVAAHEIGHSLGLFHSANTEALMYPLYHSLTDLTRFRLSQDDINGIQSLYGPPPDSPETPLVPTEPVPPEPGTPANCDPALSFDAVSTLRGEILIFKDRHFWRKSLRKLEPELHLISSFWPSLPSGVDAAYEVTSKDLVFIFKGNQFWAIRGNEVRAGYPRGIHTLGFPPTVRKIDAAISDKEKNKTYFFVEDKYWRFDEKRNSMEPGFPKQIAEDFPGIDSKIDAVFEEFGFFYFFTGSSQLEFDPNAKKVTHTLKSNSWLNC
SMILES,inhibition [1],inhibition [2],inhibition [3],inhibition [4],inhibition [5],inhibition [6],inhibition [7]
O=C(O)c1nccc2ccccc12,18%,72%,32%,42%,67%,26%,13%
Cc1cccc(C(=O)O)c1O,22%,96%,10%,1%,13%,14%,13%
Cn1cccc(O)c1=O,88%,-6%,17%,4%,-3%,8%,-5%
O=C(O)c1cc(F)ccc1O,49%,98%,-7%,-2%,-2%,21%,1%
O=C(O)c1ccccc1O,20%,97%,-1%,12%,-2%,12%,13%
CCn1ccc(=O)c(O)c1C,80%,9%,19%,16%,-8%,10%,-9%
CC(=O)C1CCCC1=O (configuration not stated),79%,83%,38%,20%,4%,25%,29%
Cc1cc(O)nc(O)n1,24%,-4%,13%,-7%,7%,1%,8%
Cc1cc(=O)c(O)co1,80%,86%,37%,37%,29%,31%,-3%
Nc1cc(=O)nc(N)[nH]1,65%,18%,3%,6%,14%,2%,7%
O=C(O)c1cccc(C(=O)O)n1,31%,99%,7%,-6%,54%,-7%,20%
